Test results as given in patent publication US10767162B2, “Methods for differentiation” (PRESIDENT AND FELLOWS OF HARVARD COLLEGE, priority 2014, dated 2020).

System: ES cell line that constitutively over-expressed the transcription factor MyoD
Format: cell-based
Details: for effect on Pax3 expression: continuous treatment during differentiation; for effect on MyoG (myogenin) expression: continuous treatment for 7 days, high or low serum; for effect on MyoG (myogenin) expression / effect on MyoG expression under low serum conditions: MyoG measured on Day 7; for effect on MyoG expression under low serum conditions: low serum (2% HS+Insulin)
Description: Time courses of differentiation were run for 7 days similarly to the previous growth factor withdrawal experiments. MyoD was induced at Day −1, and LIF was removed at Day 0. Cells were kept in either high serum (15% FBS) or low serum (2% HS+Insulin) media throughout the time course. Drug treatments were applied continuously at the designated concentrations for the entire duration of the time course, with daily media change. mRNA expression levels were measured by qRT-PCR. […] All measurements are relative to a DMSO control for the specific condition (i.e. low serum values are still higher than in high serum). L=lethal; drug had strong anti-survival effects so no data was collected. Error bars indicate S.E.M. (n=2).
Perturbations were made both under high and low serum conditions and were extended throughout the time course of differentiation. LY294002 is a potent broad inhibitor of phosphoinositide-3-kinases (PI3Ks), and when applied continuously to ES cells over 7 days induced a significant 2.7 fold increase in Pax3 mRNA expression (FIG. 4). This increase was observed both in high serum and low serum media. […] Myc drives cell cycle progression and growth. […] Both are indirect inhibitors of Myc activity; as yet there are no direct pharmacologic inhibitors of the Myc protein.
The effects of inhibiting cyclin-dependent kinases (kinases that are more centrally involved in cell cycle control) and MAP kinase, which very often is involved in cell cycle regulation, were also examined. Roscovitine is a broad CDK inhibitor that blocks a number of family members, including CDK1, CDK2, and CDK5. After continuous treatment throughout the 7 days of differentiation in the time course, roscovitine had no effect on Pax3 expression (FIG. 4). It also had little effect on the later expression of MyoG, either under high or low serum conditions. […] However, the MAPK inhibitor PD98059, which blocks MEK1/2, had no effect on Pax3 and induced MyoG only under low serum conditions (FIG. 4 bottom). The protein CDK inhibitor p21, which is much more specific than roscovitine, blocks CDK2 and prevents entry into S-phase. In ES cells p21 is expressed at low levels, but gradually increases during the course of ES cell differentiation (13). An mES cell line that constitutively overexpresses the p21 protein bicistronically with a mCherry tag (fused to the C-terminus with a 2A peptide) was developed. […] Thus, within the set of cell cycle inhibitors examined, stage-specific and condition-specific effects on gene expression were observed.
ES culture and differentiation. The ES cells contain MyoD (and associated puromycin resistance marker) expressed from a EF1alpha promoter (5). MyoD could be expressed once a loxP segment inserted between the promoter and transgene was excised by a cre recombinase fused to the estrogen receptor. ES cells were cultured in LIF and standard conditions containing 15% FBS, non-essential amino acids, L-glutamine, penicillin/streptomycin, and beta-mercaptoethanol. To induce MyoD, cells were treated for 24 hrs with 1 μM 4OHT (Sigma) in ES media. Reduced serum media consisted of DMEM and 2% horse serum (Invitrogen) plus 10 μg/ml insulin (to maintain cell survival)(Sigma) with sodium pyruvate and penicillin/streptomycin. During differentiation, cells were treated with 1 μg/ml puromycin continuously to select for cells which maintained MyoD expression. N2B27 components/supplements and Knock-out serum replacement were purchased from Invitrogen. LIF was used at a 1000 U/ml and Bmp4 at 10 ng/ml.
Drugs. The PI3K inhibitor LY294002, Roscovitine, the MEK1/2 inhibitor PD98059, and 10058-F4 were purchased from Sigma. The E2F inhibitor HLM006474 was purchased from Millipore. PD0332991 was purchased from SelleckChem. JQ1 was purchased from ApexBio.
RNA isolation and RT-PCR. RNA was isolated using RNAeasy plus kit (Qiagen). Reverse transcription was performed using iScript™ cDNA synthesis (Bio-rad). […]

[1] = Pax3 measured on Day 3, relative to DMSO control

CC[C@H](CO)Nc1nc(NCc2ccccc2)c2ncn(C(C)C)c2n1 [roscovitine, Roscovitine]
effect on Pax3 expression [1]: no effect
effect on MyoG (myogenin) expression: little effect

O=c1cc(N2CCOCC2)oc2c(-c3ccccc3)cccc12 [LY294002]
cell survival on continuing treatment: cell death
increase in Pax3 mRNA expression (applied continuously over 7 days, observed both in high serum and low serum media, relative to DMSO control, Pax3 measured on Day 3): 2.7 fold

Cc1sc2c(c1C)C(c1ccc(Cl)cc1)=N[C@@H](CC(=O)OC(C)(C)C)c1nnc(C)n1-2 [JQ1]
effect on Pax3 expression [1]: an increase in Pax3 early expression
effect on MyoG (myogenin) expression: later suppression of MyoG expression

CCc1ccc(/C=C2/SC(=S)NC2=O)cc1 [10058-F4]
effect on Pax3 expression [1]: suppressive effects
effect on MyoG (myogenin) expression: suppressive effects

CCOc1ccc(C(Nc2ccccn2)c2ccc3ccc(C)nc3c2O)cc1C (stereo not shown) [HLM006474]
effect on Pax3 expression [1]: induced Pax3
effect on MyoG (myogenin) expression: suppressed MyoG expression

COc1cccc(-c2cc(=O)c3ccccc3o2)c1N [PD98059]
effect on Pax3 expression [1]: no effect
effect on MyoG expression under low serum conditions: induced MyoG

CC(=O)c1c(C)c2cnc(Nc3ccc(N4CCNCC4)cn3)nc2n(C2CCCC2)c1=O [PD0332991]
effect on Pax3 expression [1]: lack of effect
effect on MyoG (myogenin) expression: lack of effect

B1: p21: protein CDK inhibitor, blocks CDK2; constitutively overexpressed in an mES cell line with a mCherry tag (protein, UniProt P39689 2-159, looked up)
Cyclin-dependent kinase …: SNPGDVRPVPHRSKVCRCLFGPVDSEQLRRDCDALMAGCLQEARERWNFDFVTETPLEGNFVWERVRSLGLPKVYLSPGSRSRDDLGGDKRPSTSSALLQGPAPEDHVALSLSCTLVSERPEDSPGGPGTSQGRKRRQTSLTDFYHSKRRLVFCKRKP
modifications: mCherry tag
effect on Pax3 expression [1]: no effect
effect on MyoG expression under low serum conditions: upregulated MyoG
